Experimental data as given in paper PMC6664820, “Novel natural and synthetic inhibitors of solute carriers SGLT1 and SGLT2” (Pharmacology Research & Perspectives, 2019).
Structures can show the parent of a compound that is named as a salt. Non-standard residues stand in square brackets, D forms with d. Residues, ends and D or L forms follow the SMILES beside them. pGlu = O=C1CC[CH](C(=O)O)N1

Tests used:
[1] = target: T1, SGLT1 (Homo sapiens, UniProt P13866); test: SGLT1 inhibition assay for validation of screening hits and similar compounds (1‐NBD‐glucose uptake, CHO‐hSGLT1 cells); assay type: cell-based; set-up: activity: dose or concentration left out as unconfirmed; details: for remaining activity at 5 µM / remaining activity at 50 µM: 0.5 h, concentration not given, read-out: NORMALIZED SGLT1 ACTIVITY (%); for remaining activity at 5 µM / remaining activity at 50 µM / activity: mean; for activity: compound, normalized 1-NBD-glucose uptake, CHO-hSGLT1 cells; for SGLT1/2 inhibition stated in words: SGLT1 and/or SGLT2, discussion statements; for SGLT1 inhibition / inhibition at 50 µM: mean inhibition with 50 μmol/L inhibitor; for inhibition at 50 µM: read-out: SGLT1 inhibition
T1 sequence (P13866 1-664): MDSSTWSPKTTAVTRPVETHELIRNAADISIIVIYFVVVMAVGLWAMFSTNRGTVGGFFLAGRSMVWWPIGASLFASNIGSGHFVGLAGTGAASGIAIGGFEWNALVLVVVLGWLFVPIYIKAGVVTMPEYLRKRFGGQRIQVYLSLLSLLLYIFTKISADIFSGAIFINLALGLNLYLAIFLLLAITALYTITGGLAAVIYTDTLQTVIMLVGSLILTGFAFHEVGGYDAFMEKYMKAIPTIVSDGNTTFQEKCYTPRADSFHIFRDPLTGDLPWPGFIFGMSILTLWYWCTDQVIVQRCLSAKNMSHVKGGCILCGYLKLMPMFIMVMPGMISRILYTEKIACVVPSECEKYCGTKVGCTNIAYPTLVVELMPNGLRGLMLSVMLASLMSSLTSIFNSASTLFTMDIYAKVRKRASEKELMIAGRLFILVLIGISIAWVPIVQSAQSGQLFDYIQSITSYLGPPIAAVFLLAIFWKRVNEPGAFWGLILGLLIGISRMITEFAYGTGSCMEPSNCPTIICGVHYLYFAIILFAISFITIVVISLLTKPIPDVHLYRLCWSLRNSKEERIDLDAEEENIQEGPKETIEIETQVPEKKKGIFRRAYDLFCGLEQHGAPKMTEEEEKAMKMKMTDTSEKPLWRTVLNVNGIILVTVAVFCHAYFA

[2] = target: T2, hSGLT2 (Homo sapiens, UniProt P31639); test: SGLT2 inhibition assay for validation of screening hits and similar compounds (1‐NBD‐glucose uptake, CHO‐hSGLT2 cells); assay type: cell-based; set-up: activity: dose or concentration left out as unconfirmed; details: for remaining activity at 5 µM / remaining activity at 50 µM: 0.5 h, concentration not given, read-out: NORMALIZED SGLT2 ACTIVITY (%); for remaining activity at 5 µM / remaining activity at 50 µM / activity: mean; for activity: compound, normalized 1-NBD-glucose uptake, CHO-hSGLT2 cells; for SGLT2/SGLT1 ACTIVITY RATIO 5 uM Mean: ratio of normalized SGLT2 to SGLT1 activity at 5 uM; for SGLT2/SGLT1 ACTIVITY RATIO, first concentration / SGLT2/SGLT1 ACTIVITY RATIO, second concentration: ratio of normalized SGLT2 to SGLT1 activity
T2 sequence (P31639 1-672): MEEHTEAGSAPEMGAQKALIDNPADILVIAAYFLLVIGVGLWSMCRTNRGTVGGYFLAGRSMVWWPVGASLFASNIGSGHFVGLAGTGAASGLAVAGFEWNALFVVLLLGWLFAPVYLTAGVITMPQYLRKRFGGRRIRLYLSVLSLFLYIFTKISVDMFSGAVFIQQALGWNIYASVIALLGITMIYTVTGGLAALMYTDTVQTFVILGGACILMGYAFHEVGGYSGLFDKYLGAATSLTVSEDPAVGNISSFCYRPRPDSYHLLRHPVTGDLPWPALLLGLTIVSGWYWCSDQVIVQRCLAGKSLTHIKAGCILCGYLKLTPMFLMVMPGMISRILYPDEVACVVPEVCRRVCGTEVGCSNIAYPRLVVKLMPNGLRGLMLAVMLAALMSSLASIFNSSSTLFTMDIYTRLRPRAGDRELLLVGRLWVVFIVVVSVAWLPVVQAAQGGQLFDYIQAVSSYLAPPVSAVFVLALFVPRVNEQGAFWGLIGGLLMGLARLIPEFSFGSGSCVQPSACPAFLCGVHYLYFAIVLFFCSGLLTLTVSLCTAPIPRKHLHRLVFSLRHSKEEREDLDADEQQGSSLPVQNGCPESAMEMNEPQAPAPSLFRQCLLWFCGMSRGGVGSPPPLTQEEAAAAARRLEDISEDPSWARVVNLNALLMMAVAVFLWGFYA

SMILES	remaining activity at 5 µM [1] [%]	remaining activity at 50 µM [1] [%]	remaining activity at 5 µM [2] [%]	remaining activity at 50 µM [2] [%]	also measured
CCCCN1CCCCC1C(=O)Nc1c(C)cc(C)cc1C (stereo not drawn)	80	44	73	50	–
CCN(CC)CCC(O)(c1ccccc1)C1CCCCC1 (stereo not drawn)	–	–	–	–	activity [1]: 72%; activity [2]: 69%; SGLT2/SGLT1 ACTIVITY RATIO 5 uM Mean [2]: 0.952
Cc1cc(C)c(NC(=O)C2CCCCN2C2CCCCC2)c(C)c1 (stereo not drawn)	92	58	81	52	–
CN1CCC(C#N)(c2ccccc2)CC1	109	105	105	102	–
CC(=O)OC(C)(C)C1Cc2cc3ccc(=O)oc3cc2O1 (stereo not drawn)	–	–	–	–	activity [1]: 106%; activity [2]: 101%; SGLT2/SGLT1 ACTIVITY RATIO 5 uM Mean [2]: 1.0
c1coc(-c2nnc([C@H]3CCN(C4CCCCC4)C3)o2)c1	122	98	98	89	–
CN1CC[C@H](c2nc3ccccc3s2)C1	116	116	104	112	–
CN1CCC(N2CC[C@H](c3nc4ccccc4o3)C2)CC1	117	114	102	106	–
Fc1ccccc1CN1CC[C@H](c2nnc(-c3ccco3)o2)C1	117	117	100	94	–
Cn1c(CO[C@H]2CN(Cc3ccncc3F)C[C@H]2F)nc2ccccc21	115	115	99	99	–
CN1CCC(N2CC[C@H](c3nc4cc(Cl)ccc4o3)C2)CC1	116	115	101	85	–
Fc1ccc(-c2noc([C@@H]3CCCN3Cc3ccccc3F)n2)nc1	125	105	110	91	–
CC(=O)OC1C(OC(=O)C2(C)OC2C)c2c(ccc3ccc(=O)oc23)OC1(C)C (stereo not drawn)	–	–	–	–	activity [1]: 102%; activity [2]: 90%; SGLT2/SGLT1 ACTIVITY RATIO 5 uM Mean [2]: 0.9
Oc1c(Cl)cc(Cl)c2cccnc12	115	57	114	91	–
Oc1c(I)cc(I)c2cccnc12	109	106	107	107	–
C=CC(C)(O)CC/C=C(\C)C(=O)OC1C(O)C(CO)OC(OC(=O)C23CCC(C)(C)CC2C2=CCC4C5(C)CCC(OC6OC(COC7OCC(OC(C)=O)C(O)C7OC7OC(COC(C)=O)C(O)C(O)C7O)C(O)C(O)C6O)C(C)(C)C5CCC4(C)C2(C)C(O)C3O)C1OC1OCC(OC2OCC(O)C(OC3OCC(O)C(O)C3O)C2O)C(O)C1O (stereo not drawn)	112	54	111	71	–
c1ccc(CO[C@H]2COCCN(Cc3ccccn3)C2)cc1	–	–	–	–	activity [1]: 120%; activity [2]: 110%; SGLT2/SGLT1 ACTIVITY RATIO 5 uM Mean [2]: 0.9

SMILES	remaining activity at 5 µM [1] [%]	remaining activity at 50 µM [1] [%]	remaining activity at 5 µM [2] [%]	remaining activity at 50 µM [2] [%]	also measured
Cc1nc(-c2cccs2)cc([C@H]2CN3CC[C@H]2C[C@@H]3CO)n1	120	115	110	103	–
O[C@@H]1CCCC[C@H]1N1CCC(c2ccccc2)CC1 (racemic) [vesamicol, reference compound]	93	51	91	71	SGLT1/2 inhibition stated in words [1]: showed SGLT1/2 inhibition
CC1(C)Oc2ccc3ccc(=O)oc3c2[C@H](O)[C@@H]1O (relative stereo) [cis‐khellactone]	–	–	–	–	SGLT1 inhibition [1]: no SGLT inhibition; SGLT2 inhibition ([2]; mean inhibition with 50 μmol/L inhibitor): no SGLT inhibition
C1CCN2C[C@H]3C[C@H](CN4CCCC[C@@H]34)[C@H]2C1 [(+)-Sparteine]	–	–	–	–	SGLT2/SGLT1 ACTIVITY RATIO, first concentration [2]: 1.0; SGLT2/SGLT1 ACTIVITY RATIO, second concentration [2]: 1.0
C/C=C(\C)C(=O)O[C@H]1[C@@H](OC(C)=O)c2c(ccc3ccc(=O)oc23)OC1(C)C [(+)‐praeruptorin A]	–	–	–	–	SGLT2/SGLT1‐50μmol/L (ratio of SGLT2 to SGLT1 activities with 50 μmol/L inhibitor) [1]: 2
C1CCN2C[C@@H]3C[C@@H](CN4CCCC[C@@H]34)[C@H]2C1 [(-)-Sparteine]	–	–	–	–	SGLT2/SGLT1 ACTIVITY RATIO, first concentration [2]: 1.0; SGLT2/SGLT1 ACTIVITY RATIO, second concentration [2]: 0.9
CCCCCCCCCCCCN(C)C [Dimethyldodecylamine]	–	–	–	–	SGLT2/SGLT1 ACTIVITY RATIO, first concentration [2]: 0.9; SGLT2/SGLT1 ACTIVITY RATIO, second concentration [2]: 1.0
CN(C)CCCN1c2ccccc2CCc2ccccc21 [Imipramine HCl]	–	–	–	–	SGLT2/SGLT1 ACTIVITY RATIO 5 uM Mean [2]: 0.743
C/C=C(/C)C(=O)O[C@H]1C[C@@](C)(O)C(=O)[C@@H](OC(=O)/C(C)=C\C)[C@@]2(C)CC[C@@](O)(C(C)C)[C@H]12 [Laserpitin]	–	–	–	–	SGLT2/SGLT1 ACTIVITY RATIO, first concentration [2]: 1.0; SGLT2/SGLT1 ACTIVITY RATIO, second concentration [2]: 1.0
CN(C)CCOC(C)(c1ccccc1)c1ccccc1 [Moxastine HCl]	–	–	–	–	SGLT2/SGLT1 ACTIVITY RATIO 5 uM Mean [2]: 0.9
OC(CCN1CCCCC1)(c1ccccc1)C1CC2C=CC1C2 (stereo not drawn) [biperiden, reference compound]	–	–	–	–	SGLT1/2 inhibition stated in words [1]: novel SGLT1/2 inhibitors
CNCCCN1c2ccccc2CCc2ccccc21 [desipramine, reference compound]	–	–	–	–	SGLT2/SGLT1‐50μmol/L (ratio of SGLT2 to SGLT1 activities with 50 μmol/L inhibitor) [1]: 0.5; SGLT1 inhibition [1]: no inhibition
CN(C)CCCN1c2ccccc2CCc2ccccc21 [imipramine, reference compound]	–	–	–	–	SGLT2/SGLT1‐50μmol/L (ratio of SGLT2 to SGLT1 activities with 50 μmol/L inhibitor) [1]: 0.4; inhibition at 50 µM [1]: 24%
Cc1cccc(C)c1NC(=O)C1CCCCN1C (stereo not drawn) [mepivacaine, reference compound]	–	–	–	–	inhibition at 50 µM [1]: 11%
NC(=O)C1CCCN1C(=O)C(CCC(=O)O)NC(=O)C1CCC(=O)N1 (stereo not drawn) [pGlu-Glu-Pro-Amide] ([pGlu]-Glu-Pro-NH2; configuration not given here)	–	–	–	–	SGLT2/SGLT1 ACTIVITY RATIO, first concentration [2]: 1.0; SGLT2/SGLT1 ACTIVITY RATIO, second concentration [2]: 1.0
CC=C(C)C(=O)O[C@H]1[C@@H](OC(C)=O)c2c(ccc3ccc(=O)oc23)OC1(C)C [praeruptorin C]	–	–	–	–	activity [1]: 90%
OC(CCN1CCCC1)(c1ccccc1)C1CCCCC1 (stereo not drawn) [procyclidine, reference compound]	–	–	–	–	SGLT1/2 inhibition stated in words [1]: novel SGLT1/2 inhibitors
